Broadly, the Ki is the equilibrium dissociation constant of an inhibitor or competing ligand from its target. A low value points to a stronger hold on the target. Broadly, the mortality is the share of the test organisms that died. Low readings indicate a weak lethal effect, high ones a strong lethal effect.

Some results are limits rather than exact numbers.

Some targets named below: Carbonic anhydrase 1 (Homo sapiens, UniProt P00915); Carbonic anhydrase 2 (Homo sapiens, UniProt P00918); Carbonic anhydrase 4 (Homo sapiens, UniProt P22748); Carbonic anhydrase 7 (Homo sapiens, UniProt P43166); Carbonic anhydrase 12 (Homo sapiens, UniProt O43570).
The target of data set [1] is Carbonic anhydrase 5A, mitochondrial (Homo sapiens, UniProt P35218).
Description: Binding affinity to human recombinant carbonic anhydrase 5A assessed as inhibition constant incubated for 15 mins by phenol red based stopped-flow CO2 hydration assay
Data set [2] has as its target Carbonic anhydrase 5B, mitochondrial (Homo sapiens, UniProt Q9Y2D0).
Description: Binding affinity to human recombinant carbonic anhydrase 5B assessed as inhibition constant incubated for 15 mins by phenol red based stopped-flow CO2 hydration assay
The nature of data set [3]: in vivo. The following applies: C57BL/6, mouse, 200 mg/kg.
Description: Toxicity in MES induced C57BL/6 mouse model assessed as mortality at 200 mg/kg
The nature of data set [4]: in vivo. To be noted: C57BL/6, mouse, 300 mg/kg.
Description: Toxicity in MES induced C57BL/6 mouse model assessed as animal death at 300 mg/kg

Carbonic anhydrase 1, sequence (P00915 whole entry): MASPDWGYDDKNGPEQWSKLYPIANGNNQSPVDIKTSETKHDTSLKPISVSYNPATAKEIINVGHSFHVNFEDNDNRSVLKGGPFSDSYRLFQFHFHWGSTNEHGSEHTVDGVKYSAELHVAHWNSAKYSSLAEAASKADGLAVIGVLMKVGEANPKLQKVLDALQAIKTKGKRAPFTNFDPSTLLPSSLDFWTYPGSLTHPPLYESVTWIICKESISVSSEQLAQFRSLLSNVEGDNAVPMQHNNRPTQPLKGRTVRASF
Carbonic anhydrase 7, sequence (P43166 whole entry): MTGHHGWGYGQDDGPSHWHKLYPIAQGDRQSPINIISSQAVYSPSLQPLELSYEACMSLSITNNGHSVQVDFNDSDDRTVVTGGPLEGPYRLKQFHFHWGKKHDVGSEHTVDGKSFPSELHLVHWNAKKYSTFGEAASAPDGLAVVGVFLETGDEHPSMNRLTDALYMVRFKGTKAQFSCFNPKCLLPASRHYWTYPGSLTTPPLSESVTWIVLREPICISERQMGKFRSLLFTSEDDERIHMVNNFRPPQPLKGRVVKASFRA
Carbonic anhydrase 5B, mitochondrial, sequence (Q9Y2D0 whole entry): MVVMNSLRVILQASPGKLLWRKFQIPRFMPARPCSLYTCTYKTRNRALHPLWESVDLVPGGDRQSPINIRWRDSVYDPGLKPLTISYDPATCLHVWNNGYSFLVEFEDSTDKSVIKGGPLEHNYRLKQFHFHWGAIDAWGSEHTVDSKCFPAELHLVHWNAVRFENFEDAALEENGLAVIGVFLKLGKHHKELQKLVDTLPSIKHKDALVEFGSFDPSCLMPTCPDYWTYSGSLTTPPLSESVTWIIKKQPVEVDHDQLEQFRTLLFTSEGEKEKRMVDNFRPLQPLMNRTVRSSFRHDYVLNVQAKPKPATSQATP
Carbonic anhydrase 5A, mitochondrial, sequence (P35218 whole entry): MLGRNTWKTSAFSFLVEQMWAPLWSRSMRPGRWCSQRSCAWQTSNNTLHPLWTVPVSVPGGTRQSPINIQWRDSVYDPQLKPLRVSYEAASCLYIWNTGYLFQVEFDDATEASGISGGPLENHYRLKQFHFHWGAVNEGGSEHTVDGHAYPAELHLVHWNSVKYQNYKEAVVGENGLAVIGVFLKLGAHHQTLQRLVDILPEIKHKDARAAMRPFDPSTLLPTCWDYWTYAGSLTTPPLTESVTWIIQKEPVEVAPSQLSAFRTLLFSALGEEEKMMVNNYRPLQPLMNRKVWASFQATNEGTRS
Carbonic anhydrase 12, sequence (O43570 whole entry): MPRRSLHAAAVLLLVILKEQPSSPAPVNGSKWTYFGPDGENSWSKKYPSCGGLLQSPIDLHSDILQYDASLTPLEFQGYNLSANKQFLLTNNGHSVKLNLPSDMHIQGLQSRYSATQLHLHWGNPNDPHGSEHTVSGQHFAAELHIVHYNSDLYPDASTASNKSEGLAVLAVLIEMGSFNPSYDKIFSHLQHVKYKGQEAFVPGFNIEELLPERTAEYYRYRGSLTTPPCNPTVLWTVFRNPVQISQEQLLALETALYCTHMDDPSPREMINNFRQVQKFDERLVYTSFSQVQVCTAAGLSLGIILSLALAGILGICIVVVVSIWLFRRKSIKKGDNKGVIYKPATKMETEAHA
Carbonic anhydrase 4, sequence (P22748 whole entry): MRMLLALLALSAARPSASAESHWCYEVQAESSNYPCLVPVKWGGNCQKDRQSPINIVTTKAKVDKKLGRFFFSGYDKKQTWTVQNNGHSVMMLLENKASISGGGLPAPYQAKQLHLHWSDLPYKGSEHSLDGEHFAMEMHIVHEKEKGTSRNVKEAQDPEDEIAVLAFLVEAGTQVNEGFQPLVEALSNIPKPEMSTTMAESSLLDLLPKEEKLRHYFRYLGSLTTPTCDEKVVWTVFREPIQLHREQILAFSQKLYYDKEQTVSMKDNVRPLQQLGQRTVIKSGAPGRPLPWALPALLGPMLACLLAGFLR
Description for Carbonic anhydrase 12: Binding affinity to human recombinant carbonic anhydrase 12 assessed as inhibition constant incubated for 15 mins by phenol red based stopped-flow CO2 hydration assay
Description for Carbonic anhydrase 2: Binding affinity to human recombinant carbonic anhydrase 2 assessed as inhibition constant incubated for 15 mins by phenol red based stopped-flow CO2 hydration assay
Description for Carbonic anhydrase 4: Binding affinity to human recombinant carbonic anhydrase 4 assessed as inhibition constant incubated for 15 mins by phenol red based stopped-flow CO2 hydration assay
Description for Carbonic anhydrase 7: Binding affinity to human recombinant carbonic anhydrase 7 assessed as inhibition constant incubated for 15 mins by phenol red based stopped-flow CO2 hydration assay

On to `CC(=O)O[C@@H]1[C@@H](OC(C)=O)[C@H]([Se]c2ccc(S(N)(=O)=O)cc2)O[C@H](CO)[C@H]1OC(C)=O`, for which the Ki came out at 78.4 nM on Carbonic anhydrase 1; 3.7 nM at Carbonic anhydrase 2; 67.1 nM at Carbonic anhydrase 4; 736 nM in [1]; 5.5 nM in data set [2]; 4.1 nM on Carbonic anhydrase 7. Further, at Carbonic anhydrase 12, the Ki was 5.9 nM.

For `NS(=O)(=O)c1ccc([Se][C@@H]2O[C@H](CO)[C@H](O)[C@H](O)[C@H]2O)cc1`, the Ki amounted to 647 nM on Carbonic anhydrase 1; 53.7 nM on Carbonic anhydrase 2; 580 nM on Carbonic anhydrase 4; 427 nM in data set [1]; 8.7 nM in data set [2]; 30.3 nM at Carbonic anhydrase 7. Moreover, affinity at Carbonic anhydrase 12 was put at a Ki of 82.4 nM.

Take `NS(=O)(=O)c1ccc(NC(=S)Nc2ccc([Se][C@@H]3O[C@H](CO)C(O)[C@H](O)[C@H]3O)cc2)cc1` (single isomer, unassigned; 16a): the Ki at Carbonic anhydrase 1 was determined as 71.4 nM; on Carbonic anhydrase 2 it was 5.2 nM; on Carbonic anhydrase 4, 283 nM; in data set [1], 70.5 nM; in data set [2], 7.6 nM; at Carbonic anhydrase 7, 4.4 nM. For the same compound, at Carbonic anhydrase 12, the Ki was determined as 19.8 nM. Further, in “in vivo [3]”, the mortality came to 30%.

For `CC(=O)OC[C@H]1O[C@@H]([Se]c2ccc(S(N)(=O)=O)cc2)[C@H](OC(C)=O)[C@@H](OC(C)=O)[C@@H]1OC(C)=O`, the Ki at Carbonic anhydrase 1 turned out to be 80.3 nM; at Carbonic anhydrase 2, 41.4 nM; on Carbonic anhydrase 4, 4120 nM; in [1] it was 596 nM; in data set [2] it was 707 nM; on Carbonic anhydrase 7, 14.6 nM. On Carbonic anhydrase 12, this compound showed a Ki of 9440 nM. In the data set “in vivo [4]”, this compound registered a mortality of 20%.

Turning to `CC(=O)O[C@H]1[C@@H](OC(C)=O)[C@@H](CO)O[C@@H]([Se]c2ccc(S(N)(=O)=O)c(N)c2)[C@@H]1OC(C)=O`, the Ki on Carbonic anhydrase 1 was 6820 nM; on Carbonic anhydrase 2, 6660 nM; at Carbonic anhydrase 4, 7280 nM; in data set [1], 236 nM; in data set [2], 172 nM; on Carbonic anhydrase 7, over 10000 nM. In addition, at Carbonic anhydrase 12, the Ki is over 10000 nM.

As to `CC(=O)OC[C@H]1O[C@@H]([Se]c2ccc(NC(=S)Nc3ccc(S(N)(=O)=O)cc3)cc2)[C@H](OC(C)=O)[C@@H](OC(C)=O)[C@H]1OC(C)=O`, the Ki on Carbonic anhydrase 1 was 48.1 nM; on Carbonic anhydrase 2, 6.6 nM; at Carbonic anhydrase 4 it was 362 nM; in [1], 482 nM; in data set [2] it was 4.7 nM; on Carbonic anhydrase 7, 2 nM. This compound also displayed a Ki on Carbonic anhydrase 12 of 34.2 nM.

On to `NS(=O)(=O)c1cc(C(=O)Nc2ccc([Se][C@@H]3O[C@H](CO)[C@H](O)[C@H](O)[C@H]3O)cc2)ccc1Cl`, for which the Ki on Carbonic anhydrase 1 came to 637 nM; on Carbonic anhydrase 2, 14.8 nM; on Carbonic anhydrase 4, 77.7 nM; in data set [1], 215 nM; in [2] it was 21.9 nM; on Carbonic anhydrase 7, 29.7 nM. Also, the Ki at Carbonic anhydrase 12 amounted to 88.7 nM.

As to `CC(=O)OC[C@H]1O[C@@H]([Se]c2ccc(S(N)(=O)=O)c(N)c2)[C@H](OC(C)=O)[C@@H](OC(C)=O)[C@H]1OC(C)=O`, the inhibitory constant (Ki) was 9600 nM on Carbonic anhydrase 1; 6320 nM on Carbonic anhydrase 2; over 10000 nM on Carbonic anhydrase 4; 6570 nM in data set [1]; 406 nM in data set [2]; over 10000 nM on Carbonic anhydrase 7. Besides, on Carbonic anhydrase 12, the Ki was over 10000 nM.

As for `CC(=O)OC[C@H]1O[C@@H]([Se]c2ccc(NC(=O)c3ccc(S(N)(=O)=O)cc3)cc2)[C@H](OC(C)=O)[C@@H](OC(C)=O)[C@H]1OC(C)=O`, the Ki at Carbonic anhydrase 1 came to 51.4 nM; on Carbonic anhydrase 2, 4 nM; on Carbonic anhydrase 4 it was 30.8 nM; in data set [1], 57.4 nM; in [2], 4 nM; at Carbonic anhydrase 7 it was 0.7 nM. Further, the affinity at Carbonic anhydrase 12 corresponds to a Ki of 5.6 nM.

For `NS(=O)(=O)c1ccc([Se][C@@H]2O[C@H](CO)[C@@H](O)[C@H](O)[C@H]2O)cc1`, the Ki on Carbonic anhydrase 1 stood at 541 nM; on Carbonic anhydrase 2, 13.8 nM; on Carbonic anhydrase 4, 647 nM; in [1], 325 nM; in data set [2], 87.3 nM; on Carbonic anhydrase 7, 263 nM. On Carbonic anhydrase 12, this compound showed a Ki of 589 nM.

`CC(=O)O[C@H]1[C@@H](OC(C)=O)[C@@H](CO)O[C@@H]([Se]c2ccc(S(N)(=O)=O)cc2)[C@@H]1OC(C)=O`: the inhibition constant (Ki) on Carbonic anhydrase 1 came out at 86.2 nM; at Carbonic anhydrase 2, 17.2 nM; on Carbonic anhydrase 4, 146 nM; in [1], 96.8 nM; in data set [2] it was 2.6 nM; on Carbonic anhydrase 7 it was 0.8 nM. The Ki at Carbonic anhydrase 12 was 42.3 nM.

`CC(=O)OC[C@H]1O[C@@H]([Se]c2ccc(S(N)(=O)=O)c(N)c2)[C@H](OC(C)=O)[C@@H](OC(C)=O)[C@@H]1OC(C)=O`: the Ki is over 10000 nM at Carbonic anhydrase 1; 6290 nM on Carbonic anhydrase 2; over 10000 nM at Carbonic anhydrase 4; 2540 nM in [1]; over 10000 nM in data set [2]; over 10000 nM on Carbonic anhydrase 7. Besides, the Ki at Carbonic anhydrase 12 is over 10000 nM.

For the compound `Nc1cc([Se][C@@H]2O[C@H](CO)[C@@H](O)[C@H](O)[C@H]2O)ccc1S(N)(=O)=O`, the Ki is 7680 nM on Carbonic anhydrase 1; 4010 nM at Carbonic anhydrase 2; over 10000 nM on Carbonic anhydrase 4; 2300 nM in data set [1]; over 10000 nM in [2]; over 10000 nM at Carbonic anhydrase 7. This compound also registered a Ki on Carbonic anhydrase 12 of 2560 nM.

On to `NS(=O)(=O)c1ccc(NC(=S)Nc2ccc([Se][C@@H]3O[C@H](CO)C(O)[C@H](O)[C@H]3O)cc2)cc1` (single isomer, unassigned; 16b), for which the inhibitory constant (Ki) at Carbonic anhydrase 1 was found to be 41.5 nM; on Carbonic anhydrase 2 it was 4.5 nM; at Carbonic anhydrase 4 it was 77.7 nM; in [1], 358 nM; in data set [2] it was 6.2 nM; at Carbonic anhydrase 7, 0.9 nM. Further, the Ki at Carbonic anhydrase 12 was 9.1 nM.

As to `CC(=O)OC[C@H]1O[C@@H]([Se]c2ccc(S(N)(=O)=O)cc2)[C@H](OC(C)=O)[C@@H](OC(C)=O)[C@H]1OC(C)=O`, the Ki at Carbonic anhydrase 1 came out at 95.8 nM; at Carbonic anhydrase 2 it was 4.1 nM; on Carbonic anhydrase 4, 344 nM; in [1] it was 87.2 nM; in [2], 6.6 nM; on Carbonic anhydrase 7, 0.5 nM. On Carbonic anhydrase 12, this compound returned a Ki of 804 nM.

`NS(=O)(=O)c1ccc(C(=O)Nc2ccc([Se][C@@H]3O[C@H](CO)[C@@H](O)[C@H](O)[C@H]3O)cc2)cc1`: the Ki on Carbonic anhydrase 1 came to 46.4 nM; at Carbonic anhydrase 2, 6.1 nM; at Carbonic anhydrase 4 it was 8.9 nM; in data set [1], 45.1 nM; in data set [2], 3 nM; at Carbonic anhydrase 7, 0.9 nM. Further, at Carbonic anhydrase 12, affinity was put at a Ki of 7.2 nM.

For the compound `NS(=O)(=O)c1ccc(C(=O)Nc2ccc([Se][C@@H]3O[C@H](CO)[C@H](O)[C@H](O)[C@H]3O)cc2)cc1`, the Ki on Carbonic anhydrase 1 is 48 nM; on Carbonic anhydrase 2 it was 1.7 nM; at Carbonic anhydrase 4, 348 nM; in [1], 120 nM; in data set [2], 88 nM; on Carbonic anhydrase 7 it was 9.6 nM. Also, the inhibition constant Ki at Carbonic anhydrase 12 was determined as 90.5 nM.

Consider `CC(=O)OC[C@H]1O[C@@H]([Se]c2ccc(NC(=S)Nc3ccc(S(N)(=O)=O)cc3)cc2)[C@H](OC(C)=O)[C@@H](OC(C)=O)[C@@H]1OC(C)=O`, for which the Ki on Carbonic anhydrase 1 stood at 53.1 nM; on Carbonic anhydrase 2, 6.3 nM; at Carbonic anhydrase 4 it was 555 nM; in [1], 254 nM; in [2], 8.9 nM; at Carbonic anhydrase 7, 1.8 nM. The same compound displayed a Ki on Carbonic anhydrase 12 of 55.8 nM.

For the compound `CC(=O)OC[C@H]1O[C@@H]([Se]c2ccc(NC(=O)c3ccc(Cl)c(S(N)(=O)=O)c3)cc2)[C@H](OC(C)=O)[C@@H](OC(C)=O)[C@@H]1OC(C)=O`, the Ki is over 10000 nM on Carbonic anhydrase 1; 214 nM at Carbonic anhydrase 2; 1570 nM on Carbonic anhydrase 4; 348 nM in [1]; 40.9 nM in [2]; 87.3 nM on Carbonic anhydrase 7. On Carbonic anhydrase 12, this compound registered a Ki of over 10000 nM.

On to `NS(=O)(=O)c1ccc(S(=O)(=O)[C@@H]2O[C@H](CO)[C@@H](O)[C@H](O)[C@H]2O)cc1`, for which the inhibition constant (Ki) was 4.2 nM in data set [2] and 2.2 nM on Carbonic anhydrase 7.

On to `CC(=O)OC[C@H]1O[C@@H]([Se]c2ccc(NC(=O)c3ccc(S(N)(=O)=O)cc3)cc2)[C@H](OC(C)=O)[C@@H](OC(C)=O)[C@@H]1OC(C)=O`, for which the Ki on Carbonic anhydrase 1 worked out at 85.2 nM; on Carbonic anhydrase 2, 5.1 nM; on Carbonic anhydrase 4, 378 nM; in [1], 90.6 nM; in [2] it was 8.7 nM; at Carbonic anhydrase 7 it was 2.8 nM. Moreover, the Ki on Carbonic anhydrase 12 amounted to 9.4 nM.

Values taken from ChEMBL document CHEMBL5331139, “First-in-Class Dual Targeting Compounds for the Management of Seizures in Glucose Transporter Type 1 Deficiency Syndrome” (J Med Chem, 2023).
